pIC50: −log10 of the molar value.

One compound from ChEMBL document CHEMBL1146897, “A chloroquine-like molecule designed to reverse resistance in Plasmodium falciparum” (J Med Chem, 2006) can be followed below.

For assay [1], the system named is Plasmodium falciparum. The experiment in a line: Antimalarial activity against chloroquine-sensitive Plasmodium falciparum D6. In kind it is functional, organism-based.
In assay [2] the test system is Plasmodium falciparum. Description: Antimalarial activity against chloroquine-resistant Plasmodium falciparum Dd2. Type of assay: functional, organism-based.
In the next assay the test system is Plasmodium chabaudi. The experiment in a line: Antimalarial activity in Plasmodium chabaudi infected CF1 mice (Mus musculus) at 64 mg/kg over 4 days.

Usually pIC50 stands for −log10 of the IC50, conventionally taken in molar units. Regarding `CN(CCCNc1ccnc2cc(Cl)ccc12)CCCN1c2ccccc2CCc2ccccc21`, the figures for the pIC50 in the assay on Plasmodium falciparum [1] and with Plasmodium falciparum [2] were 8.54 and 8.28, respectively. The compound further displayed an Activity in the assay with Plasmodium chabaudi of over 99%.
